Among the data in patent US6770664B2, “Bicyclic heterocyclic substituted phenyl oxazolidinone antibacterials, and related compositions and methods” (priority 1999, dated 2004) are melting point values, retold here.

Each structure is given as a SMILES string.

What is called melting point is the temperature, or range, at which the solid turns liquid.

`CC(=O)NC[C@H]1CN(c2ccc(N3Cc4cnc(-c5cccnc5)nc4C3)c(F)c2)C(=O)O1` [Compound 43]: the melting point was 265 to 270 °C (dec.).

Molecule `CC(=O)NC[C@H]1CN(c2ccc(N3Cc4ncccc4C3=O)c(F)c2)C(=O)O1` [Compound 49] came in with a melting point of 207 to 209 °C. As for `O=C1O[C@@H](COc2ccon2)CN1c1ccc(N2Cc3cccnc3C2)c(F)c1` [Compound 7], the figure is 182 to 185 °C; as for `CC(=O)NC[C@H]1CN(c2ccc(N3Cc4c[nH]nc4C3)c(F)c2)C(=O)O1` [Compound 44], 244 to 247 °C (dec.); as for `O=C1O[C@@H](COc2ccon2)CN1c1ccc(-n2cc3cccnc3c2)c(F)c1` [Compound 8], 133 to 135 °C. In the case of `CCC(=O)NC[C@H]1CN(c2ccc(N3Cc4cccnc4C3)c(F)c2)C(=O)O1` [Compound 13], the melting point is 110 to 112 °C. For `CC(=O)NC[C@H]1CN(c2ccc(N3Cc4cnn(C(C)(C)C)c4C3)c(F)c2)C(=O)O1` [Compound 52], the melting point lay within 155 to 157 °C. The molecule `O=C1O[C@@H](COc2cnccn2)CN1c1ccc(-n2cc3cccnc3c2)c(F)c1` [Compound 10] returned a melting point of 192 to 194 °C.

For `CC(=O)NC[C@H]1CN(c2ccc(N3Cc4cnn(C)c4C3)c(F)c2)C(=O)O1` [Compound 50], the melting point was 211 to 213 °C. With `CC(=O)NC[C@@H]1CN(c2ccc(-n3cc4cccnc4c3)c(F)c2)C(=O)O1` [Compound 6], the melting point is 181 to 185 °C (dec.). Take `CC(=O)NC[C@H]1CN(c2ccc(N3C(=O)c4ccccc4C3=O)c(F)c2)C(=O)O1` [Compound 47]: the melting point was in the range of 240 to 242 °C. In turn, `CC(=O)NC[C@H]1CN(c2ccc(N3Cc4cn(C[C@H](O)CO)nc4C3)c(F)c2)C(=O)O1` [Compound 66] gave a melting point of 188 to 191 °C. As for `O=C1O[C@@H](COc2cnsn2)CN1c1ccc(-n2cc3cccnc3c2)c(F)c1` [Compound 12], the figure is 185 to 188 °C; as for `O=C1O[C@@H](CO)CN1c1ccc(N2Cc3cccnc3C2)c(F)c1` [Compound 2, (5R)-3-[4-(5,7-Dihydro-6H-pyrrolo[3,4-b]pyridin-6-yl)-3-fluorophenyl]-5-(hydroxymethyl)-2-oxazolidinone], 208 to 212 °C (dec.). Consider `CC(=O)NC[C@H]1CN(c2ccc(-n3cc4cncnc4c3)c(F)c2)C(=O)O1` [Compound 37], for which the melting point fell in the range of 164 to 166 °C. Then `CC(=O)NC[C@H]1CN(c2ccc(N3Cc4cn(CCCO)nc4C3)c(F)c2)C(=O)O1` [Compound 68], with 171 to 173 °C.

In turn, `CC(=O)NC[C@H]1CN(c2ccc(N3Cc4cnn(CCO)c4C3)c(F)c2)C(=O)O1` [Compound 53] displayed a melting point of 163 to 165 °C.

In the case of `CS(=O)(=O)NC[C@H]1CN(c2ccc(N3Cc4cccnc4C3)c(F)c2)C(=O)O1` [Compound 20], the melting point is 172 to 176 °C. Then `CC(=O)NC[C@H]1CN(c2ccc(-n3cc4cccnc4c3)c(F)c2)C(=O)O1` [Compound 4], with 220 to 225 °C (dec.); and `N/C(=N\[N+](=O)[O-])NC[C@H]1CN(c2ccc(N3Cc4cccnc4C3)c(F)c2)C(=O)O1` [Compound 24], with 202 to 206 °C.

Regarding `CC(=O)NC[C@H]1CN(c2ccc(N3Cc4cccnc4C3=O)c(F)c2)C(=O)O1` [Compound 48], the melting point fell in the range of 230 to 232 °C. Take `CNC(=S)n1cc2c(n1)CN(c1ccc(N3C[C@H](CNC(C)=O)OC3=O)cc1F)C2` [Compound 87]: the melting point was 246 to 249 °C.

The molecule `O=C1O[C@@H](COc2cnccn2)CN1c1ccc(N2Cc3cccnc3C2)c(F)c1` [Compound 9] came in with a melting point of 225 to 230 °C. Take `CS/C(=N\C#N)NC[C@H]1CN(c2ccc(N3Cc4cccnc4C3)c(F)c2)C(=O)O1` [Compound 22]: the melting point was 204 to 207 °C. With `CC(=O)NC[C@H]1CN(c2ccc(N3Cc4cnc(-c5cnccn5)nc4C3)c(F)c2)C(=O)O1` [Compound 38], the melting point fell in the range of 212 to 214 °C. Regarding `[N-]=[N+]=NC[C@H]1CN(c2ccc(N3Cc4cccnc4C3)c(F)c2)C(=O)O1` [Example 7], the melting point was 175 to 180 °C (dec.).

For `CC(=O)NC[C@H]1CN(c2ccc(-n3cc4ccncc4c3)c(F)c2)C(=O)O1` [Compound 28], the melting point was 219 to 225 °C (dec.). As for `CC(=O)NC[C@H]1CN(c2ccc(N3Cc4cn(CC(F)(F)F)nc4C3)c(F)c2)C(=O)O1` [Compound 70], the melting point was 170 to 172 °C. In turn, `CC(=O)NC[C@H]1CN(c2ccc(N3Cc4cnc(-c5ccccn5)nc4C3)c(F)c2)C(=O)O1` [Compound 42] showed a melting point of 216 to 220 °C.

As to `CCCn1ncc2c1CN(c1ccc(N3C[C@H](CNC(C)=O)OC3=O)cc1F)C2` [Compound 45], the melting point lay in the range of 204 to 208 °C.

As for `CC(=O)NC[C@H]1CN(c2ccc(N3Cc4cnc(C)nc4C3)c(F)c2)C(=O)O1` [Compound 35], the melting point is 234 °C (dec.). Then `CC(=O)NC[C@H]1CN(c2ccc(N3Cc4ccccc4C3)c(F)c2)C(=O)O1` [Compound 1, N-[[(5S)-3-[4-(1,3-Dihydro-2H-isoindol-2-yl)-3-fluorophenyl]-2-oxo-5-oxazolidinyl]methyl]acetamide], with 240 to 242 °C; and `CC(=O)NC[C@H]1CN(c2ccc(N3Cc4cn(-c5ccccn5)nc4C3)c(F)c2)C(=O)O1` [Compound 51], with 259 to 261 °C (dec.); and `CC(=O)NC[C@H]1CN(c2ccc(-n3cc4cc[n+]([O-])cc4c3)c(F)c2)C(=O)O1` [Compound 27, N-[[(5S)-3-[3-Fluoro-4-(5-oxido-2H-pyrrolo[3,4-c]pyridin-2-yl)phenyl]-2-oxo-5-oxazolidinyl]methyl]acetamide], with 219 to 225 °C (dec.).

For the molecule `CC(=O)NC[C@H]1CN(c2ccc(N3Cc4cn(CCO)nc4C3)c(F)c2)C(=O)O1` [Compound 65, N-[[(5S)-3-[4-[2,6-dihydro-2-(2-hydroxyethyl)pyrrolo[3,4-c]pyrazol-5(4H)-yl]-3-fluorophenyl]-2-oxo-5-oxazolidinyl]methyl]acetamide], the melting point is 232 to 242 °C (dec.). As for `CC(=O)NC[C@H]1CN(c2ccc(N3Cc4cn(C[C@@H](O)CO)nc4C3)c(F)c2)C(=O)O1` [Compound 69], the melting point was in the range of 184 to 188 °C. `CC(=O)NC[C@H]1CN(c2ccc(N3Cc4cnc(-c5ccncc5)nc4C3)c(F)c2)C(=O)O1` [Compound 41]: the melting point is 245 to 250 °C (dec.). As for `CC(=O)NC[C@H]1CN(c2ccc(N3Cc4ccccc4C3=O)c(F)c2)C(=O)O1` [Compound 46, N-[[(5S)-3-[4-(1,3-dihydro-1-oxo-2H-isoindol-2-yl)-3-fluorophenyl]-2-oxo-5-oxazolidinyl]methyl]acetamide], the figure is 211 to 214 °C.

As for `O=C1O[C@@H](COc2cnsn2)CN1c1ccc(N2Cc3cccnc3C2)c(F)c1` [Compound 11], the melting point lay within 185 to 187 °C. In turn, `CC(=O)NC[C@H]1CN(c2ccc(N3Cc4cncnc4C3)c(F)c2)C(=O)O1` [Compound 36] returned a melting point of 230 to 232 °C.

On to `O=C(NC[C@H]1CN(c2ccc(N3Cc4cccnc4C3)c(F)c2)C(=O)O1)C1CC1` [Compound 15], for which the melting point was 235 to 240 °C. The molecule `CC(=O)NC[C@H]1CN(c2ccc(N3Cc4cnn(CC5CC5)c4C3)c(F)c2)C(=O)O1` (single isomer, unassigned) [Compound 73] showed a melting point of 234 to 236 °C.
